Laboratory results taken from US20180303086A1, “An Antimicrobial Composition” (Conopco, Inc., d/b/a UNILEVER, priority 2015, published 2018).

Experiment: Solubility product and silver ion solubility of silver compounds in water at 25° C.
Assay type: physicochemical
Conditions: calculated from Ksp, [Ag+]=(Ksp·x)^(1/(x+1))
Description: More particularly, silver ion solubility [Ag+], a value given in mol/L may be calculated using the formula: […]

Silver Ion Solubility [Ag+]: 13 µM
Compound: [Cl][Ag] [Silver chloride]
